Experimental data from patent US5126356A, “Piperidine compounds” (Adir et Compagnie, priority 1989, dated 1992).

Columns and labels:
[1] = target: T1, 5HT1A (Homo sapiens, UniProt P08908); assay: Binding to neurotransmitter receptors: 5HT1A ([3H] 8 OH DPAT); conditions: read-out: K0.5
T1 sequence (P08908 1-422): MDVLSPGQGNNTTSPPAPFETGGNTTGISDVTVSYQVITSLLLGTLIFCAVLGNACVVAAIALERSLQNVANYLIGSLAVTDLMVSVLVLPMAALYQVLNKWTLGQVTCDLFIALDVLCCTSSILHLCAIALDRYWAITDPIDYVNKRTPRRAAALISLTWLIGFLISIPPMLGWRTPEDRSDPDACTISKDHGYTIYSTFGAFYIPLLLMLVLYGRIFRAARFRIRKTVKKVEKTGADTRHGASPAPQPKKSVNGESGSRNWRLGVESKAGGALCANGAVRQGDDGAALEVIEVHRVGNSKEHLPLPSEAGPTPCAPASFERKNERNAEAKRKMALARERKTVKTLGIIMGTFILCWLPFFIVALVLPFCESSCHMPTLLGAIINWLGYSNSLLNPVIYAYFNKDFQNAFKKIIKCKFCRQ

[2] = system: beagle dogs; assay: Anti-ischaemic activity, Protocol 2: moderate coronary stenosis plus auricular pacing in anaesthetised beagle dogs; format: in vivo, dog; conditions: Pacing 2 minutes, 1 mg/kg i.v.
Description: The studies are carried out on beagle dogs weighing from 9 to 12 kg which have been anaesthetised with pentobarbital sodium 30 mg/kg i.v., intubated and ventilated, and subjected to a thoracotomy at the 5th left intercostal space.
An electromagnetic ring connected to a Gould SP 2202 electromagnetic flow meter is placed around the circumflex branch of the left coronary artery, and an inflatable balloon is placed just downstream of that ring for the production of coronary stenoses under the control of the coronary output.
Piezoelectric crystals (5 MHz) connected to a Triton sonomicrometer are implanted in the subendocardium of the left ventricular wall, in an area that is to become ischaemic, for measuring local myocardial contractility; epicardial electrodes are placed in the same area for recording the epicardial electrocardiogram.
Two electrodes are sewn at the right auricle in the region of the sinoauricular node for the protocols including pacing sequences. […]
Myocardial contractility is evaluated by the proportion of systolic shortening of the lengths of the segments between the piezoelectric crystals.
Hypokinesia in the ischaemic area is expressed as percentage variation relative to the contractility measured in the control period.
Modification of the epicardial ECG in the ischaemic area consists in raising the epicardial ST segment measured in millivolts (mV).

[3] = system: neurotransmitter receptors (5HT, α,β); assay: Effect on neurotransmitter receptors (panel as a whole); format: binding; conditions: exception of the dopaminergic receptors
Description: The competition experiments between the different radioligands and the reference molecules are carried out under the standard binding conditions according to O'BRIEN R. A., Receptor binding in drug research. In: Clinical Pharmacology, vol. 5, DEKKER M. Inc., New York and Basle (1986). In all cases, after the required linkage time, the bound radioactivity is separated from the free component by in vacuo filtration on a GF/C filter.

[4] = target: Dopamine D2 (Homo sapiens, UniProt P14416); assay: Binding to neurotransmitter receptors: D2 ([3H] 205 501); conditions: read-out: K0.5
Dopamine D2, sequence (P14416 whole entry): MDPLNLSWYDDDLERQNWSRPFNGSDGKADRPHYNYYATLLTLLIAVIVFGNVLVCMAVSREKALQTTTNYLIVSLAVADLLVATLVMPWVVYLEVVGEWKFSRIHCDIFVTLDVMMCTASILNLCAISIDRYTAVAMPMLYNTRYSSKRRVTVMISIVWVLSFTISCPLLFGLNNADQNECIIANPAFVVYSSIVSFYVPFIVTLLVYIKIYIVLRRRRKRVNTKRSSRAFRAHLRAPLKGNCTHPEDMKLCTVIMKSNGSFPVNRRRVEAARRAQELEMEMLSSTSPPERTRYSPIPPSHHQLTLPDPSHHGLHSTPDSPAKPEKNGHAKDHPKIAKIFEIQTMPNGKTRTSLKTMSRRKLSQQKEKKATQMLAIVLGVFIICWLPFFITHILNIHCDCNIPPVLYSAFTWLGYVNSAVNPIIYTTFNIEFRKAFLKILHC

[5] = target: type L calcium channels; assay: Binding: displacement of [3H] D888 at the Ca2+ channel; conditions: read-out: K0.5 (50% of specifically fixed radioactivity displaced)
[6] = target: Beta adrenergic β; assay: Binding to neurotransmitter receptors: beta adrenergic ([3H] DHA); conditions: read-out: K0.5
[7] = target: T2, slow calcium channels (Rattus norvegicus, UniProt P22002); assay: Electrophysiology, whole cell patch clamp on A7 r5, slow calcium entry flow; format: cell-based
T2 construct: cell lines from the aorta of newly born rats; host or cells: A7 r5
T2 sequence (P22002 whole entry): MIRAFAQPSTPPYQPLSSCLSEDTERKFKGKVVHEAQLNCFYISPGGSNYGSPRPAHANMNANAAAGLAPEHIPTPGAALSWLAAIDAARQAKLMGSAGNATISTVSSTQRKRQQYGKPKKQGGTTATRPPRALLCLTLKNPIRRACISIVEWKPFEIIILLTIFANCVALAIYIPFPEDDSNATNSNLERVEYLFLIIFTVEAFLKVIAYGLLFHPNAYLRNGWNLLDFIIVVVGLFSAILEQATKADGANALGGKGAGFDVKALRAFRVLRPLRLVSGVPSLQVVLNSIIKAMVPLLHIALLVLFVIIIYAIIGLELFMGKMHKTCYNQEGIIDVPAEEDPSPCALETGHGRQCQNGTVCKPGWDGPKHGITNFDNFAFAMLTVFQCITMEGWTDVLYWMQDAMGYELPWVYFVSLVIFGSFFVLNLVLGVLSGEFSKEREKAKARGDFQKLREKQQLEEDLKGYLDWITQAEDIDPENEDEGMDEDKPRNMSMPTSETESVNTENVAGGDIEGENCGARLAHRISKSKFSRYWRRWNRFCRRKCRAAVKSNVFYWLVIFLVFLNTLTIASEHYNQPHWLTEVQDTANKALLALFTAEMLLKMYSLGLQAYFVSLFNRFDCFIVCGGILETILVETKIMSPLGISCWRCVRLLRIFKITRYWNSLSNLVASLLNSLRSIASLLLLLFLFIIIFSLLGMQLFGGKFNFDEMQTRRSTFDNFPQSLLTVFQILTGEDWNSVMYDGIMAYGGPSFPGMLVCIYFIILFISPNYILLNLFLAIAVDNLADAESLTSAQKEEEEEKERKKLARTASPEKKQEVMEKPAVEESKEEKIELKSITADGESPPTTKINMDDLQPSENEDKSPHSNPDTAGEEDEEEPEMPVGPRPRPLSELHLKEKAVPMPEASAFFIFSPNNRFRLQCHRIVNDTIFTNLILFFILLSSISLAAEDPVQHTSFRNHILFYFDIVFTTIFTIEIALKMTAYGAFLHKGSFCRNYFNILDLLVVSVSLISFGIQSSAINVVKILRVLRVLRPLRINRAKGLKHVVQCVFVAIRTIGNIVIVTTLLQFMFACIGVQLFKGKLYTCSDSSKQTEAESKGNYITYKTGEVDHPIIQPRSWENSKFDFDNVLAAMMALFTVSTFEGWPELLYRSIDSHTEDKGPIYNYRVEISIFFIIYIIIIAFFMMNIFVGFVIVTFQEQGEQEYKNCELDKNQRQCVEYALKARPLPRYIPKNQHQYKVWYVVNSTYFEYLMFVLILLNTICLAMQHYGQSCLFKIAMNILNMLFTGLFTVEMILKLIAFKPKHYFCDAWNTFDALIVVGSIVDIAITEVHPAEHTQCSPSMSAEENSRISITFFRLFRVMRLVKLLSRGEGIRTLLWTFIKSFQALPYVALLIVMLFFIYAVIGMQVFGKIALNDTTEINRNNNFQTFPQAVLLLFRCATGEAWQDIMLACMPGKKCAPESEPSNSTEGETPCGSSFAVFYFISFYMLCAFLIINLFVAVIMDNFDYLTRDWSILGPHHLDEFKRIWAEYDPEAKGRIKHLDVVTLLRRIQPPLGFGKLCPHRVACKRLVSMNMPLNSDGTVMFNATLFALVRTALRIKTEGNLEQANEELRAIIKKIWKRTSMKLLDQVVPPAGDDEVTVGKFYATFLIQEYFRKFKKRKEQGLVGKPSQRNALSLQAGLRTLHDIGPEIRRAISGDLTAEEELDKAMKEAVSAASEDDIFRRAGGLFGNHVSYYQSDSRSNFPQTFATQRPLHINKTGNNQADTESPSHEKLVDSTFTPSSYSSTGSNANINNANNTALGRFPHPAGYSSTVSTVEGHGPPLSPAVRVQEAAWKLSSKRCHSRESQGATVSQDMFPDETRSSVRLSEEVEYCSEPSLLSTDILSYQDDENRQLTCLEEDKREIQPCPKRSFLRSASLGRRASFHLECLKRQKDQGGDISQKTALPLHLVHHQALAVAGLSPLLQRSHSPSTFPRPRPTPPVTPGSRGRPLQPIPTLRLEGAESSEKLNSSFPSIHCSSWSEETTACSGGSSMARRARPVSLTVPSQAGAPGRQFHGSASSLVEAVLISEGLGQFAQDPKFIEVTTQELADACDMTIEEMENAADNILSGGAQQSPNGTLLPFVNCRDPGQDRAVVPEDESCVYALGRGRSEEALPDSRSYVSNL
T2 sequence (P54290 25-945 partner limits assumed): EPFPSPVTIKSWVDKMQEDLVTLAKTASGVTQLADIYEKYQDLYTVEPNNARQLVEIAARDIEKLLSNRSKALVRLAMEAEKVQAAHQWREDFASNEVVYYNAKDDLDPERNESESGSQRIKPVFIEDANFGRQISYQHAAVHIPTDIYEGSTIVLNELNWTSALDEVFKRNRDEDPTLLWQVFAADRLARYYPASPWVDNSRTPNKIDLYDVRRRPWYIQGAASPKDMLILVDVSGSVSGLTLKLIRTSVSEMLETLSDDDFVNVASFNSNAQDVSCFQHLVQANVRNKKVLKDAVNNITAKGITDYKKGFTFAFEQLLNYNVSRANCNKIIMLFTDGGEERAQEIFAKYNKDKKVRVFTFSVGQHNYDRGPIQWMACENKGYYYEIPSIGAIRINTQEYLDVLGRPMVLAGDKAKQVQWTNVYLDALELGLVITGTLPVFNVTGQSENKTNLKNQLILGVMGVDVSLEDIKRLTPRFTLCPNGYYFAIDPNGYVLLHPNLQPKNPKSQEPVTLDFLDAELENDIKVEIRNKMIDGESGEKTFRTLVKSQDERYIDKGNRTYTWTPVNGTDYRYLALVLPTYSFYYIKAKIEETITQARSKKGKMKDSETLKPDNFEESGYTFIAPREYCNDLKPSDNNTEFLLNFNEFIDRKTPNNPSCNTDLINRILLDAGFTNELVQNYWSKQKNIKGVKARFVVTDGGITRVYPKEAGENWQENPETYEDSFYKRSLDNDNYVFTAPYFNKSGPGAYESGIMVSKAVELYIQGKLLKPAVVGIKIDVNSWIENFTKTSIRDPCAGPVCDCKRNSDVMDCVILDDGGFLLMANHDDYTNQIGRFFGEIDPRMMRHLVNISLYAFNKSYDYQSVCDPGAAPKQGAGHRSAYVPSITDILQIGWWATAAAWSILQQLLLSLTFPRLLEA
T2 sequence (P54290 946-1091 partner limits assumed): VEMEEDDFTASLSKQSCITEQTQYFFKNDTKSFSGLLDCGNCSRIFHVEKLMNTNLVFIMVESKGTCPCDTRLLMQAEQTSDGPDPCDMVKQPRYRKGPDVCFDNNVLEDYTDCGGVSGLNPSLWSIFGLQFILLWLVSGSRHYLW
Description: b) A7 r5 : cell lines from the aorta of newly born rats (ATCC No. CRL 1444), cultivated under the conditions indicated by the American Type Culture Collection (ATCC).
The studies were carried out on the A7 r5 cell line using the whole cell patch-clamp technique described by HAMILL O., MARTY A., WEHER E., SAKMANN B., SIGWORTH F. F., Improved patch clamp techniques for high resolution current recording from cells and cell from membrane patches. Pflugers Arch., 391, 85-100 (1981).

[8] = target: 5HT2 (Homo sapiens, UniProt P28223); assay: Binding to neurotransmitter receptors: 5HT2 ([3H] Ketanserine)
5HT2, sequence (P28223 whole entry, species assumed): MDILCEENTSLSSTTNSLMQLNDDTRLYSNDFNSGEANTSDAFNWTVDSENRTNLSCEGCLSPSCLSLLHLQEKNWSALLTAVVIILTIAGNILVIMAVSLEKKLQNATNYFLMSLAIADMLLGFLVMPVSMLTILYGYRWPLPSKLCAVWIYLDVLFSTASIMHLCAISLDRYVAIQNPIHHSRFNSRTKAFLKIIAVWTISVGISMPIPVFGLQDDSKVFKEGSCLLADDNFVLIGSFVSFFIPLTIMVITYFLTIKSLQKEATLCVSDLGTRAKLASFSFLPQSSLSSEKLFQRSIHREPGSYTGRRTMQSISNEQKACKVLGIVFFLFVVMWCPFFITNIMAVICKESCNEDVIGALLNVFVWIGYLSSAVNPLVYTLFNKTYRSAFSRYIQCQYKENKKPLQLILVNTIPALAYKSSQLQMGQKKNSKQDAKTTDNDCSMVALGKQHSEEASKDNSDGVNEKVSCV

[9] = system: cardiac cells; assay: Protection of cardiac cells from necrosis induced by intracellular acidosis (αHBDH release); format: cell-based, rat
Description: a) Cardiac cells: the cardiac cells are prepared from the hearts of newly born (3 days) Wistar rats in accordance with the technique of RENAUD JF., MEAUX JP., ROMEY G., SCHMID A., LAZDUNSKI M., Activation of the voltage-dependent Ca^2+ channels in rat heart cells by dihydropyridine derivative--Biochem. Biophys. Res. Commun., 125, 405-412 (1984).
The cardiomyocytes are isolated from the ventricles by enzymatic dissociation and cultured at 185,000 cells/cm^2. The cells are kept at 37° C. under an air/CO2 atmosphere (95 V/5 V) saturated with water. The cardiomyocytes are used between the 3rd and 8th day following culturing.
Intracellular acidosis is induced in accordance with the conditions published by RENAUD JF., Internal pH Na^+ and Ca^2+ regulation by trimetazidine during cardiac cell acidosis. Cardiovasc. Drugs and Ther., 1, 667-686 (1988) in the presence or absence of the products to be tested. Cellular necrosis is evaluated by measuring by spectrophotometry using the Boerhinger 124800 kit the kinetics of the release of a cytosolic enzyme α-hydroxybutyrate dehydrogenase (αHBDH) into the extracellular medium.
The signal measured corresponds to the amplitude of the necrosis induced by the acidosis. The values are the means ±SD. The number of experiments is indicated in parentheses.

[10] = target: Alpha adrenergic α2; assay: Binding to neurotransmitter receptors: alpha2 adrenergic ([3H] Rauwolscine); conditions: α2, [3H] Rauwolscine; read-out: K0.5
[11] = target: Alpha adrenergic α1; assay: Binding to neurotransmitter receptors: alpha1 adrenergic ([3H] Prazosin); conditions: α1, [3H] Prazosin; read-out: K0.5

IC50 [1]: 3 µM
IC50 [4]: 300 nM
IC50 [5]: 1300 nM
IC50 [6]: 2000 nM
EC50 ([7]; whole cell patch clamp, A7 r5, read-out: semi-effect (EC50), inhibition of the slow calcium entry flow): 10 µM
IC50 [8]: 1000 nM
IC50 [10]: 900 nM
IC50 [11]: 2000 nM
SMILES: COc1ccc(CSC2CCN(CC=Cc3ccccc3)CC2)c(OC)c1OC [Example 1, 4-(2,3,4-trimethoxybenzylthio)-1-cinnamylpiperidine]
Epicardial ST delta mV ([2]; solvent +6.0): +0.5 mV
Contractility delta % ([2]; solvent -62.6): -42.2%
interaction with neurotransmitter receptors (in words) [3]: interacts in a relatively non-specific manner and with low affinity with neurotransmitter receptors (5HT, α,β) with the exception of the dopaminergic receptors
inhibition of slow calcium channels / Ca2+ entry flow (in words) [7]: inhibition of the Ca^2+ entry flow in a dose-dependent manner
activity at 0.3 µM ([9]; Rattus norvegicus, Cardiomyocyte, 0.3 μM, control after acidosis alone 100%, before acidosis 0%, mean ±SD, read-out: amplitude of the necrosis induced by the acidosis): 144%
activity at 1 µM ([9]; Rattus norvegicus, Cardiomyocyte, 1 μM, control after acidosis alone 100%, mean ±SD, read-out: amplitude of the necrosis induced by the acidosis): 21.9%
activity at 3 µM ([9]; Rattus norvegicus, Cardiomyocyte, 3 μM, control after acidosis alone 100%, mean ±SD, read-out: amplitude of the necrosis induced by the acidosis): 1.42%
activity at 10 µM ([9]; Rattus norvegicus, Cardiomyocyte, 10 μM, control after acidosis alone 100%, mean ±SD, read-out: amplitude of the necrosis induced by the acidosis): 2.14%
activity at 30 µM ([9]; Rattus norvegicus, Cardiomyocyte, 30 μM, control after acidosis alone 100%, mean ±SD, read-out: amplitude of the necrosis induced by the acidosis): 9.68%
minimal effective concentration ([9]; Rattus norvegicus, 1 μM and above, read-out: concentration at which protection occurs): ≥ 1 µM
protection of cells with respect to intracellular acidosis (in words) ([9]; in vitro): protects the cardiac cell from necrosis induced by intracellular acidosis
